{"source": "patent US20180126014A1", "about": "“COMPOSITIONS FOR ENHANCING DELIVERY OF AGENTS ACROSS THE BLOOD BRAIN BARRIER AND METHODS OF USE THEREOF” (Yale University, priority 2015, published 2018)", "key": {"[1]": {"tested_on": "intracranial GL261 tumors", "conditions": "NPs co-loaded with IR780 and BBB modulator, three consecutive days, imaged 24 h after last injection", "protocol": "For the intracranial GL261 tumor implantation, 5-6 week old female C57BL6 mice were anesthetized via intraperitoneal injection of ketamine hydrochloride (75 mg/kg, Abbot Laboratories) and xylazine (7.5 mg/kg, Phoenix Pharmaceutical) in sterile saline. Twenty thousand GL261 cells in 2 μL of PBS were injected into the right striatum (1.8 mm lateral to the bregma and 3 mm of depth) using a stereotactic fixation device with mouse adaptor. For the subcutaneous GL261 xenograft model, 1×10^6 GL261 cells in 100 μL of PBS were inoculated subcutaneously into the right flank region of female C57BL6 mice. For the intracranial U87-MG glioma model, 1×10^6 U87-MG cells in 2 μL of PBS was injected into the right striatum of BALB/c nude mice using the same procedures.\n(§1) Then the hair on the head was shaved and mice were anesthetized and imaged using the IVIS fluorescence imaging system on day 20. Finally, mice were sacrificed and organs resected for further imaging.\nAt 24 h after the last injection, the hair on the head was shaved and mice were anesthetized and imaged using an IVIS imaging system (Xenogen). Finally, mice were sacrificed and organs resected for further imaging. The fluorescence signal intensity of excised organs was quantified using Living Image 3.0.\nas §1"}, "A1 adenosine receptor": {"target": "T1, A1 adenosine receptor (Homo sapiens, UniProt P30542)", "T1 sequence (P30542 1-326)": "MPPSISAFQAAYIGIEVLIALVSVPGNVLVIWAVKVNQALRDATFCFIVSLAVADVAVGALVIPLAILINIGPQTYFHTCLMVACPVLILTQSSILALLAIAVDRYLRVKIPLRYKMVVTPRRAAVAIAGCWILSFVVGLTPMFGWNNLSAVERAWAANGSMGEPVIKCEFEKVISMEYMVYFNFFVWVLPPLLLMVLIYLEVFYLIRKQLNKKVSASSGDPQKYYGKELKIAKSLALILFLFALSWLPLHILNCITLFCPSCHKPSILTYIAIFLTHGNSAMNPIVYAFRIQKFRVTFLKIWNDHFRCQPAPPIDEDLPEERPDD", "conditions": "cited from earlier work"}, "A2B adenosine receptor": {"target": "T2, A2B adenosine receptor (Homo sapiens, UniProt P29275)", "T2 sequence (P29275 1-332)": "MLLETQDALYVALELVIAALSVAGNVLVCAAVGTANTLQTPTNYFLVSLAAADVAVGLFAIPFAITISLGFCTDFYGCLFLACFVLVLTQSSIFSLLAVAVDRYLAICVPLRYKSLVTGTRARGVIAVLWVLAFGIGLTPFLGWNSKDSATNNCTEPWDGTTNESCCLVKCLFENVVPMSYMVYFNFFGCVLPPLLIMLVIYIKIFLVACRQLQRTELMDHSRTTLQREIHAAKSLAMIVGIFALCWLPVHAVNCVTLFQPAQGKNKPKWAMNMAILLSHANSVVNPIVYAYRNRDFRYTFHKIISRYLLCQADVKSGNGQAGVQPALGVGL", "conditions": "cited from earlier work"}, "A3 adenosine receptor": {"target": "T3, A3 adenosine receptor (Homo sapiens, UniProt P0DMS8)", "T3 sequence (P0DMS8 1-318)": "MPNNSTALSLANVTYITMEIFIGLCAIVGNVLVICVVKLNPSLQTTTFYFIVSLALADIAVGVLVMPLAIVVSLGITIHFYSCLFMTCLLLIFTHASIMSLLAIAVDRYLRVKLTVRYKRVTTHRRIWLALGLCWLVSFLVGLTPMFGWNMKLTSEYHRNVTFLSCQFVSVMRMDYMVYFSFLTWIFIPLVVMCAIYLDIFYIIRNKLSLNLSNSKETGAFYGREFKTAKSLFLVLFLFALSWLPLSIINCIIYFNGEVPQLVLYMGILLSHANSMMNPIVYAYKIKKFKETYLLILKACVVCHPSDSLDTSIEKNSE", "conditions": "cited from earlier work"}, "[2]": {"tested_on": "MDA-MB-231Br brain metastases", "assay": "Paclitaxel-loaded ABTT NPs in MDA-MB-231Br derived brain metastasis model", "format": "in vivo, mice", "conditions": "three times a week for three weeks", "protocol": "Nanoparticles were prepared similarly to those described above for Examples 1 and 6, but including the CTX targeting moiety as described in Example 6. […] Briefly, for synthesis of paclitaxel-loaded NPs, 100 mg mIII-62% in 2 mL DCM containing 2.5 mg LEXISCAN® and 20 mg paclitaxel was added dropwise to 4 mL 2.5% PVA under vortex and sonicated to form a oil/water emulsion. The emulsion was poured into a beaker containing 0.3% PVA and stirred for 3 h to evaporate DCM. NPs were collected by centrifugation at 20000 rpm for 30 min. The precipitate was suspended in PBS and reacted with thiolated CTX […] at room temperature. Nanoparticles were collected, suspended in H2O and lyophilized for storage and characterization.\nIn both studies, mice were treated with nanoparticles for three times a week for three weeks at a dose of 2 mg/mouse. It is believed that enhanced efficacy can be achieved with a higher dose treatment (maximum tolerated dose >15 mg per treatment) or with extended treatment time."}}}
{"smiles": "CNC(=O)c1cnn(-c2nc(N)c3ncn([C@@H]4O[C@H](CO)[C@@H](O)[C@H]4O)c3n2)c1", "note": "[Regadenoson, 2-{4-[(methylamino)carbonyl]-1H-pyrazol-1-yl}adenosine]", "values": [{"measurement": "delivery of CTX-mHph2-III-62% NPs to the brain with encapsulated BBB modulator", "setting": "[1]", "value": "significantly enhanced delivery"}, {"measurement": "Ki", "setting": "A1 adenosine receptor", "value": "> 16.5", "unit": "µM"}, {"measurement": "lower affinity for the A1 adenosine receptor than for A2A", "setting": "A1 adenosine receptor", "value": "at least 10 fold"}, {"measurement": "affinity", "setting": "A2B adenosine receptor", "value": "weak, if any"}, {"measurement": "affinity", "setting": "A3 adenosine receptor", "value": "weak, if any"}]}
{"smiles": "CC(=O)O[C@H]1C(=O)[C@@]2(C)[C@H]([C@H](OC(=O)c3ccccc3)[C@]3(O)C[C@H](OC(=O)[C@H](O)[C@@H](NC(=O)c4ccccc4)c4ccccc4)C(C)=C1C3(C)C)[C@]1(OC(C)=O)CO[C@@H]1C[C@@H]2O", "note": "[free paclitaxel, paclitaxel]", "values": [{"measurement": "median survival time", "setting": "[2]", "value": 45, "unit": "days"}]}
{"smiles": "CCNC(=O)[C@H]1O[C@@H](n2cnc3c(N)ncnc32)[C@H](O)[C@@H]1O", "note": "[NECA, 1-(6-Amino-9H-purin-9-yl)-1-deoxy-N-ethyl-β-D-ribofuranuronamide]", "values": [{"measurement": "delivery of CTX-mHph2-III-62% NPs to the brain with encapsulated BBB modulator", "setting": "[1]", "value": "significantly enhanced delivery"}]}
{"smiles": "Nc1cc(N2CCCCC2)nc(N)[n+]1[O-]", "note": "[minoxidil]", "values": [{"measurement": "delivery of CTX-mHph2-III-62% NPs to the brain with encapsulated BBB modulator", "setting": "[1]", "value": "significantly enhanced delivery"}]}
